Results from patent US20230365592A1 (Agios Pharmaceuticals, Inc., priority 2022, published 2023).

The compounds below were run against T1, human PAH with the R408W mutation (Homo sapiens, UniProt P00439, R408W) (assay: Cell Based Phenylalanine Flux Assay). Conditions: A375 cells expressing R408W PAH; 24 hrs with compound, then 20 µM sepiapterin and 800 µM 13C9,15N-Phenylalanine for 4 hours; 13C-Tyrosine by LC-MS; average where tested multiple times; read-out: AC50.
T1 construct: expressed in transfected cells
T1 sequence (P00439 1-452 R408W): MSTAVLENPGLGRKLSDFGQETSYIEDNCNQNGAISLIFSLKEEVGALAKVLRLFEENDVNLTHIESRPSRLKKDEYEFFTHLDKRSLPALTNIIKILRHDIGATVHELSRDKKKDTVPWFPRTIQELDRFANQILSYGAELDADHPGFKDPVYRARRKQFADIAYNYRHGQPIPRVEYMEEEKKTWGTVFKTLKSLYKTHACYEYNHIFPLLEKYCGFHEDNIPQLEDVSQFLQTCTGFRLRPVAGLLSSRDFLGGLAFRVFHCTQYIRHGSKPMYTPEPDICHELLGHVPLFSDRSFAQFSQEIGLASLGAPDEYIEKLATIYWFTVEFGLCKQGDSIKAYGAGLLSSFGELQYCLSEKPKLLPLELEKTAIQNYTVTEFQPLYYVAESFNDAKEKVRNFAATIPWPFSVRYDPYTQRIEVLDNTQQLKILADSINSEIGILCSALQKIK
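Note: after compound treatment, cells received sepiapterin plus isotope-labelled Phenylalanine for 4 hours, then labelled Tyrosine in the medium was quantified, 10-point 2-fold dilution series run in duplicate.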

AC50	SMILES
1 to 5 µM	Fc1cccc2cc(C3c4nc[nH]c4CCN3c3ncccn3)nn12 (stereo not drawn)
1 to 5 µM	Clc1cccc2cc(C3c4nc[nH]c4CCN3c3nnc(C4CCC4)o3)nn12 (stereo not drawn)
> 5 µM	COc1cccn2nc([C@@H]3c4nc[nH]c4CCN3C(=O)c3nnc(C(C)(C)O)o3)cc12 (single isomer, unassigned)
> 5 µM	COc1cccn2nc(C3c4nc[nH]c4CCN3C(=O)c3cnn4cc(N(C)C)ccc34)cc12 (stereo not drawn)
1 to 5 µM	CC(C)(O)c1nnc(C(=O)N2CCc3[nH]cnc3C2c2cc3c(C(F)(F)F)cccn3n2)o1 (stereo not drawn)
1 to 5 µM	Clc1cccc2cc(C3c4nc[nH]c4CCN3c3nnc(-c4cnccn4)o3)nn12 (stereo not drawn)

Same assay, conditions: A375 cells expressing human PAH R408W; 24 hrs compound incubation; 13C-Tyrosine by LC-MS; average where tested multiple times; read-out: AC50

AC50	SMILES
< 0.5 µM	Cc1cccc2cc([C@@H]3c4nc[nH]c4CCN3c3nnc(-c4ccc(F)cc4)o3)nn12 [Example 2010, (S)-2-(4-fluorophenyl)-5-(4-(7-methylpyrazolo[1,5-a]pyridin-2-yl)-1,4,6,7-tetrahydro-5H-imidazo[4,5-c]pyridin-5-yl)-1,3,4-oxadiazole]
1 to 5 µM	Cc1c(-c2nnc(C(=O)N3CCc4[nH]cnc4[C@@H]3c3cc4c(C5CC5)cccn4n3)o2)cnn1C [Example 1899, (R)-(4-(4-cyclopropylpyrazolo[1,5-a]pyridin-2-yl)-1,4,6,7-tetrahydro-5H-imidazo[4,5-c]pyridin-5-yl)(5-(1,5-dimethyl-1H-pyrazol-4-yl)-1,3,4-oxadiazol-2-yl)methanone]
> 5 µM	Fc1cccc(F)c1-c1nnc(N2CCc3[nH]cnc3[C@@H]2c2cc3cccc(C(F)F)n3n2)o1 [Example 2092, (R)-2-(4-(7-(difluoromethyl)pyrazolo[1,5-a]pyridin-2-yl)-1,4,6,7-tetrahydro-5H-imidazo[4,5-c]pyridin-5-yl)-5-(2,6-difluorophenyl)-1,3,4-oxadiazole]
> 5 µM	CC(C)c1cccn2nc([C@H]3c4nc[nH]c4CCN3C(=O)c3nnc(C(C)(C)F)o3)cc12 [Example 1885, (R)-(5-(2-fluoropropan-2-yl)-1,3,4-oxadiazol-2-yl)(4-(4-isopropylpyrazolo[1,5-a]pyridin-2-yl)-1,4,6,7-tetrahydro-5H-imidazo[4,5-c]pyridin-5-yl)methanone]
< 0.5 µM	c1ccc(N2CCc3[nH]cnc3[C@H]2c2cc3ccccn3n2)nc1 [Example 1814, (S)-4-(pyrazolo[1,5-a]pyridin-2-yl)-5-(pyridin-2-yl)-4,5,6,7-tetrahydro-1H-imidazo[4,5-c]pyridine]
0.5 to 1 µM	O=C(c1nnc(C2CC2)s1)N1CCc2[nH]cnc2[C@H]1c1cc2ccccn2n1 [Example 1991, (S)-(5-cyclopropyl-1,3,4-thiadiazol-2-yl)(4-(pyrazolo[1,5-a]pyridin-2-yl)-1,4,6,7-tetrahydro-5H-imidazo[4,5-c]pyridin-5-yl)methanone]
0.5 to 1 µM	Cn1ccc(-c2ncc(C(=O)N3CCc4[nH]cnc4[C@H]3c3cc4c(C(F)(F)F)cccn4n3)o2)n1 [Example 2109, (S)-(2-(1-methyl-1H-pyrazol-3-yl)oxazol-5-yl)(4-(4-(trifluoromethyl)pyrazolo[1,5-a]pyridin-2-yl)-1,4,6,7-tetrahydro-5H-imidazo[4,5-c]pyridin-5-yl)methanone]
< 0.5 µM	CC(F)(F)c1nnc(N2CCc3[nH]cnc3[C@H]2c2cc3c(C4CC4)cccn3n2)o1 [Example 2205, (S)-2-(4-(4-cyclopropylpyrazolo[1,5-a]pyridin-2-yl)-1,4,6,7-tetrahydro-5H-imidazo[4,5-c]pyridin-5-yl)-5-(1,1-difluoroethyl)-1,3,4-oxadiazole]
1 to 5 µM	Cc1cccn2nc([C@@H]3c4nc[nH]c4CCN3c3nnc(C4CCC4)o3)cc12 [Example 2481, (S)-2-cyclobutyl-5-(4-(4-methylpyrazolo[1,5-a]pyridin-2-yl)-6,7-dihydro-1H-imidazo[4,5-c]pyridin-5(4H)-yl)-1,3,4-oxadiazole]
> 5 µM	COc1cccn2nc([C@H]3c4nc[nH]c4CCN3C(=O)c3cnn4cc(C)ccc34)cc12 [Example 2471, (R)-(4-(4-methoxypyrazolo[1,5-a]pyridin-2-yl)-6,7-dihydro-1H-imidazo[4,5-c]pyridin-5(4H)-yl)(6-methylpyrazolo[1,5-a]pyridin-3-yl)methanone]

Same assay, conditions: A375 cells expressing human R408W PAH; 24 hrs compound incubation; 13C-Tyrosine by LC-MS; average where tested multiple times; read-out: AC50

AC50	SMILES
0.5 to 1 µM	COc1cccn2nc([C@@H]3c4nc[nH]c4CCN3C(=O)c3nnc(C4CC4)o3)cc12 [Example 1168, (S)-(5-cyclopropyl-1,3,4-oxadiazol-2-yl)(4-(4-methoxypyrazolo[1,5-a]pyridin-2-yl)-6,7-dihydro-1H-imidazo[4,5-c]pyridin-5(4H)-yl)methanone]
> 5 µM	Cc1cccc2cc([C@H]3c4nc[nH]c4CCN3C(=O)c3cnn4cc(CN(C)C)ccc34)nn12 [Example 1691, (R)-(6-((dimethylamino)methyl)pyrazolo[1,5-a]pyridin-3-yl)(4-(7-methylpyrazolo[1,5-a]pyridin-2-yl)-6,7-dihydro-1H-imidazo[4,5-c]pyridin-5(4H)-yl)methanone]
> 5 µM	Cc1cnn(C)c1-c1nnc(C(=O)N2CCc3[nH]cnc3[C@@H]2c2cc3c(C(F)F)cccn3n2)o1 [Example 1569, (R)-(4-(4-(difluoromethyl)pyrazolo[1,5-a]pyridin-2-yl)-6,7-dihydro-1H-imidazo[4,5-c]pyridin-5(4H)-yl)(5-(1,4-dimethyl-1H-pyrazol-5-yl)-1,3,4-oxadiazol-2-yl)methanone]
> 5 µM	Cc1cc(-c2nnc(C(=O)N3CCc4[nH]cnc4[C@@H]3c3cc4c(C(F)F)cccn4n3)o2)nn1C [Example 1530, (R)-(4-(4-(difluoromethyl)pyrazolo[1,5-a]pyridin-2-yl)-6,7-dihydro-1H-imidazo(4,5-c]pyridin-5(4H)-yl)(5-(1,5-dimethyl-1H-pyrazol-3-yl)-1,3,4-oxadiazol-2-yl)methanone]
> 5 µM	Cn1cc(-c2nnc(C(=O)N3CCc4[nH]cnc4[C@@H]3c3cc4cccc(C(F)F)n4n3)o2)cn1 [Example 1407, (R)-(4-(7-(difluoromethyl)pyrazolo[1,5-a]pyridin-2-yl)-6,7-dihydro-1H-imidazo[4,5-c]pyridin-5(4H)-yl)(5-(1-methyl-1H-pyrazol-4-yl)-1,3,4-oxadiazol-2-yl)methanone]
< 0.5 µM	O=C(c1ocnc1C(F)F)N1CCc2[nH]cnc2[C@H]1c1cc2cccc(C(F)(F)F)n2n1 [Example 1154, (S)-(4-(difluoromethyl)oxazol-5-yl)(4-(7-(trifluoromethyl)pyrazolo[1,5-a]pyridin-2-yl)-6,7-dihydro-1H-imidazo[4,5-c]pyridin-5(4H)-yl)methanone]
0.5 to 1 µM	COc1cccn2nc([C@@H]3c4nc[nH]c4CCN3C(=O)c3nnc(C(C)(C)F)o3)cc12 [Example 971, (S)-(5-(2-fluoropropan-2-yl)-1,3,4-oxadiazol-2-yl)(4-(4-methoxypyrazolo[1,5-a]pyridin-2-yl)-6,7-dihydro-1H-imidazo[4,5-c]pyridin-5(4H)-yl)methanone]
1 to 5 µM	FC(F)(F)c1cccc2cc([C@H]3c4nc[nH]c4CCN3c3ncccn3)nn12 [Example 1764, (R)-5-(pyrimidin-2-yl)-4-(7-(trifluoromethyl)pyrazolo[1,5-a]pyridin-2-yl)-4,5,6,7-tetrahydro-1H-imidazo[4,5-c]pyridine]
< 0.5 µM	Cc1nc(C(C)(C)F)oc1C(=O)N1CCc2[nH]cnc2[C@H]1c1cc2cccc(Cl)n2n1 [Example 1266, (S)-(4-(7-chloropyrazolo[1,5-a]pyridin-2-yl)-6,7-dihydro-1H-imidazo[4,5-c]pyridin-5(4H)-yl)(2-(2-fluoropropan-2-yl)-4-methyloxazol-5-yl)methanone]
1 to 5 µM	COc1ccc(-c2nnc(C(=O)N3CCc4[nH]cnc4[C@H]3c3cc4cccc(C(F)(F)F)n4n3)o2)cn1 [Example 1344, (S)-(5-(6-methoxypyridin-3-yl)-1,3,4-oxadiazol-2-yl)(4-(7-(trifluoromethyl)pyrazolo[1,5-a]pyridin-2-yl)-6,7-dihydro-1H-imidazo[4,5-c]pyridin-5(4H)-yl)methanone]
> 5 µM	CC(C)(O)c1nc(Br)c(C(=O)N2CCc3[nH]cnc3[C@@H]2c2cc3ccccn3n2)o1 [Example 677, (R)-(4-bromo-2-(2-hydroxypropan-2-yl)oxazol-5-yl)(4-(pyrazolo[1,5-a]pyridin-2-yl)-6,7-dihydro-1H-imidazo[4,5-c]pyridin-5(4H)-yl)methanone]
< 0.5 µM	O=C(c1nnc(-c2cnn(C(F)F)c2)o1)N1CCc2[nH]cnc2[C@H]1c1cc2c(C(F)F)cccn2n1 [Example 1374, (S)-(5-(1-(difluoromethyl)-1H-pyrazol-4-yl)-1,3,4-oxadiazol-2-yl)(4-(4-(difluoromethyl)pyrazolo[1,5-a]pyridin-2-yl)-6,7-dihydro-1H-imidazo[4,5-c]pyridin-5(4H)-yl)methanone]
1 to 5 µM	Cc1ccc2cc([C@H]3c4nc[nH]c4CCN3C(=O)c3oc(C(C)(C)O)nc3C(F)F)nn2c1 [Example 805]
0.5 to 1 µM	CN(C)c1ccc2c(C(=O)N3CCc4[nH]cnc4[C@H]3c3cc4c(C(F)F)cccn4n3)cnn2c1 [Example 1770, (S)-(4-(4-(difluoromethyl)pyrazolo[1,5-a]pyridin-2-yl)-6,7-dihydro-1H-imidazo[4,5-c]pyridin-5(4H)-yl)(6-(dimethylamino)pyrazolo[1,5-a]pyridin-3-yl)methanone]
